This is an account of results in article PMC13258496, “Synthesis of Methoxylated Benzoxanthones as Drug Metabolites of Antischistosomal Schistodiones—A Limited Environmental Risk” (Molecules, 2026).

The assay deals with S. aureus. As to the kind of experiment: Primary antibacterial screening. The class given is cell-based. The conditions noted are these: Staphylococcus aureus. On the procedure: The cytotoxicity of the same compounds was evaluated against human fibroblasts (hMRC-5) and mouse macrophages (PMM). All assays were carried out with parent benzylMD (PD, SD-A2′,5′, SD-A3′,5′) and control drug references.
The primary in vitro evaluation of test compounds at LMPH is performed against a broad panel of pathogens to allow proper evaluation of selectivity. Compound stock solutions are prepared in 100% DMSO at 20 mM. The compounds are serially pre-diluted (two-fold or four-fold) in DMSO followed by a further (intermediate) dilution in demineralized water to assure a final in-test DMSO concentration of <1%.

Usually IC50 stands for the point on the concentration scale where inhibition reaches its midpoint.

`CC[C@H]1OC(=O)[C@H](C)[C@@H](O[C@H]2C[C@@](C)(OC)[C@@H](O)[C@H](C)O2)[C@H](C)[C@@H](O[C@@H]2O[C@H](C)C[C@H](N(C)C)[C@H]2O)[C@](C)(O)C[C@@H](C)C(=O)[C@H](C)[C@@H](O)[C@]1(C)O` [Erythromycin] returned an IC50 of 11.3 µM.
